Assays:
[1] = Human liver microsomal stability assay (Test 1); assay type: in vitro ADME; conditions: liver microsomes, 0.5 uM test compound, 37°C, up to 45 minutes, 0.5 mg microsomal protein, NADPH generating system, pH 7.4, read-out: Test 1 T1/2
Protocol: (§1) Four assays on compounds were carried out by the following methods with the results shown in Table I. • (Test 1) Human liver microsomal stability assay was conducted by incubating 0.5 uM test compounds at 37°C for up to 45 minutes in 50 mM of potassium phosphate buffer (pH 7.4) containing 0.5 mg of microsomal protein and 50 µL of NADPH generating system (7.8 mg of glucose 6-phosphate, 1.7 mg of NADPH and 6 U of glucose 6-phosphate dehydrogenase per mL in 2% w/v of sodium bicarbonate). At 0, 5, 15, 30 and 45 min., an aliquot was taken, quenched with internal standard containing stop solution. No co-factor controls at 45 minutes were also prepared. After incubation, the samples were analyzed by LC-MS/MS. Peak area ratios of analyte to internal standard were used to calculate the intrinsic clearance. The intrinsic clearance (CLint) was determined from the first order elimination constant by non-linear regression. Formation of the active drug Compound A over the time course was also monitored by LC-MS/MS analysis. • (Test 2) Human plasma stability assay was conducted by incubating 0.5 uM test compounds at 37°C for up to 120 minutes in heparinated human plasma. At 0, 5, 15, 30, 60 and 120 […] min., an aliquot was taken, quenched with internal standard containing stop solution. After incubation, the samples were analyzed by LC-MS/MS. Peak area ratios of analyte to internal standard were used to calculate the half-life. Formation of the active drug Compound A over the time course was also monitored by LC-MS/MS analysis. • (Test 3) Human skin homogenate stability assay was conducted in a similar way as the human liver microsomal stability assay, by incubating 0.5 uM test compounds at 37°C for up to 45 minutes in 50 mM of potassium phosphate buffer (pH 7.4) containing 0.5 mg of human skin homogenate protein and 50 µL of NADPH generating system (7.8 mg of glucose 6-phosphate, 1.7 mg of NADPH and 6 U of glucose 6-phosphate dehydrogenase per mL in 2% w/v of sodium bicarbonate). At 0, 5, 15, 30 and 45 min., an aliquot was taken, quenched with internal standard containing stop solution. No co-factor controls at 45 minutes were also prepared. After incubation, the samples were analyzed by LC-MS/MS. Peak area ratios of analyte to internal standard were used to calculate the intrinsic clearance. The intrinsic clearance (CLint) was determined from the first order elimination constant by non-linear regression. Formation of the active drug Compound A over the time course was also monitored by LC-MS/MS analysis. • (Test 4) Human hepatocyte stability assay was conducted by incubating 0.5 uM test compound at 37°C for up to 240 minutes. Cryopreserved human hepatocytes were obtained from Celsis IVT (Baltimore, Maryland). Cells were thawed according to vendor's instructions and were suspended in William's Medium E to 0.5 million cells/mL. Test compounds were spiked into the cell suspension to initiate the reactions. At 0, 10,30,60, 120 and 240 min., an aliquot was taken, quenched with internal standard containing stop solution. After incubation, the samples were analyzed by LC-MS/MS. Peak area ratios of analyte to internal standard were used to calculate the intrinsic clearance. The intrinsic clearance (CLint) was determined from the first order elimination constant by non-linear regression. Formation of the active drug Compound A over the time course was also monitored by LC-MS/MS analysis.

[2] = Human plasma stability assay (Test 2); assay type: in vitro ADME; conditions: 0.5 uM test compound, 37°C, up to 120 minutes, heparinated human plasma, read-out: Test 2 T1/2
Protocol: as §1

[3] = Human hepatocyte stability assay (Test 4); assay type: in vitro ADME; conditions: cryopreserved hepatocytes, 0.5 uM test compound, 37°C, up to 240 minutes, 0.5 million cells/mL in William's Medium E, read-out: Test 4 T1/2
Protocol: as §1

[4] = Human skin homogenate stability assay (Test 3); assay type: in vitro ADME; conditions: 0.5 uM test compound, 37°C, up to 45 minutes, 0.5 mg human skin homogenate protein, NADPH generating system, pH 7.4, read-out: Test 3 T1/2
Protocol: as §1

[5] = treprostinil as the free acid, cited from earlier work

| Compound | half-life at 0.5 uM [1] [min] | half-life at 0.5 uM [2] [min] | half-life at 0.5 uM [3] [min] | half-life at 0.5 uM [4] [min] | absolute oral bioavailability ([5]; oral) | systemic half life ([5]; due to significant metabolism) |
| --- | --- | --- | --- | --- | --- | --- |
| CCCCCC(O)CCC1C(O)CC2Cc3c(cccc3OCC(=O)NCC3CC3)CC21 (stereo not drawn) [Compound 2, N-Cyclopropylmethyl-2-[2-hydroxy-1-(3-hydroxy-octyl)-2,3,3a,4,9,9a-hexahydro-1H-cyclopenta[b]naphthalen-5-yloxy]-acetamide] | < 15 | > 60 | 31 to 60 | – | – | – |
| CCCCCC(O)CCC1C(O)CC2Cc3c(cccc3OCC(=O)NCCO)CC21 (stereo not drawn) [Compound 7, N-(2-Hydroxy-ethyl)-2-[2-hydroxy-1-(3-hydroxy-octyl)-2,3,3a,4,9,9a-hexahydro-1H-cyclopenta[b]naphthalen-5-yloxy]-acetamide] | 15 to 30 | > 60 | 15 to 30 | – | – | – |
| CCCCC[C@H](O)CC[C@@H]1[C@H]2Cc3cccc(OCC(=O)O)c3C[C@H]2C[C@H]1O [treprostinil] | – | – | – | – | less than 10% | very short |

More lines, main results first:

| half-life at 0.5 uM [1] [min] | half-life at 0.5 uM [2] [min] | half-life at 0.5 uM [3] [min] | half-life at 0.5 uM [4] [min] | Compound | absolute oral bioavailability ([5]; oral) | systemic half life ([5]; due to significant metabolism) |
| --- | --- | --- | --- | --- | --- | --- |
| < 15 | > 60 | < 15 | – | CCCCCC(O)CCC1C(O)CC2Cc3c(cccc3OCC(=O)N(C)CC(=O)OC)CC21 (stereo not drawn) [Compound 13, ({2-[2-Hydroxy-1-(3-hydroxy-octyl)-2,3,3a,4,9,9a-hexahydro-1H-cyclopenta[b]naphthalen-5-yloxy]-acetyl}-methyl-amino)-acetic acid methyl ester] | – | – |
| < 15 | > 60 | < 15 | > 60 | CCCCCC(O)CCC1C(O)CC2Cc3c(cccc3OCC(=O)NCC(F)(F)F)CC21 (stereo not drawn) [Compound 14, 2-[2-Hydroxy-1-(3-hydroxy-octyl)-2,3,3a,4,9,9a-hexahydro-1H-cyclopenta[b]naphthalen-5-yloxy]-N-(2,2,2-trifluoro-ethyl)-acetamide] | – | – |
| < 15 | > 60 | – | 31 to 60 | CCCCCC(O)CCC1C(OC(=O)OCC)CC2Cc3c(cccc3OCC(=O)OC)CC21 (stereo not drawn) [Compound 25, [2-Ethoxycarbonyloxy-1-(3-hydroxy-octyl)-2,3,3a,4,9,9a-hexahydro-1H-cyclopenta[b]naphthalen-5-yloxy]-acetic acid methyl ester] | – | – |
| > 60 | > 60 | > 60 | – | CCCCC[C@H](O)CC[C@@H]1[C@H]2Cc3cccc4c3C[C@H]2C[C@H]1OC(=O)CO4 [Compound 57, Treprostinil 2-hydroxy lactone] | – | – |

Reference: patent EP3828160A1, “TREPROSTINIL DERIVATIVE COMPOUNDS AND METHODS OF USING SAME” (Corsair Pharma, Inc., priority 2014, dated 2016)
